Experimental data from patent US20220183294A1, “PESTICIDALLY ACTIVE AZOLE AMIDE COMPOUNDS” (SYNGENTA CROP PROTECTION AG, priority 2019, published 2022).

How the values were obtained:
Format in all cases: in vivo
[1] = system: Myzus persicae (Green peach aphid); experiment: Example B12: Myzus persicae (Green Peach Aphid), 96-well sucrose solution; conditions: 120 h, application rate 50 ppm, 5 days after infestation
Description: Example B12: Myzus persicae (Green Peach Aphid)
Test compounds prepared from 10′000 ppm DMSO stock solutions were applied by a liquid handling robot into 96-well microtiter plates and mixed with a sucrose solution. Parafilm was stretched over the 96-well microtiter plate and a plastic stencil with 96 holes was placed onto the plate. Aphids were sieved into the wells directly onto the Parafilm. The infested plates were closed with a gel blotting card and a second plastic stencil and then turned upside down. The samples were assessed for mortality 5 days after infestation.

[2] = system: Chilo suppressalis (Striped rice stemborer); experiment: Example B4: Chilo suppressalis (Striped rice stemborer), artificial diet; conditions: 144 h, application rate 200 ppm, L2 larvae, 6 days after infestation, read-out: control in at least one of the three categories (mortality, anti-feedant effect, or growth inhibition)
Method: Example B4: Chilo suppressalis (Striped rice stemborer) 24-well microtiter plates with artificial diet were treated with aqueous test solutions prepared from 10′000 ppm DMSO stock solutions by pipetting. After drying, the plates were infested with L2 larvae (6-8 per well). The samples were assessed for mortality, anti-feeding effect, and growth inhibition in comparison to untreated samples 6 days after infestation. Control of Chilo suppressalis by a test sample is given when at least one of the categories mortality, anti-feedant effect, and growth inhibition is higher than the untreated sample.

[3] = system: Plutella xylostella (Diamondback Moth); experiment: Example B13: Plutella xylostella (Diamondback Moth), artificial diet, 96-well; conditions: 216 h, application rate 500 ppm, eggs/L1 larvae, 9 days after infestation
Method: Example B13: Plutella xylostella (Diamondback Moth)
96-well microtiter plates containing artificial diet were treated with aqueous test solutions, prepared from 10′000 ppm DMSO stock solutions, by a liquid handling robot. After drying, eggs (-30 per well) were infested onto a netted lid which was suspended above the diet. The eggs hatch and L1 larvae move down to the diet. The samples were assessed for mortality 9 days after infestation.
The following compounds gave an effect of at least 80% mortality at an application rate of 500 ppm: […]

[4] = system: Spodoptera littoralis (Egyptian cotton leaf worm); experiment: Example B9: Spodoptera littoralis (Egyptian cotton leaf worm), sprayed cotton leaf discs; conditions: foliar, 72 h, application rate 200 ppm, L1 larvae, 3 days after infestation, read-out: control in at least one of the three categories (mortality, anti-feedant effect, or growth inhibition)
Method: Example B9: Spodoptera littoralis (Egyptian cotton leaf worm)
Cotton leaf discs were placed onto agar in 24-well microtiter plates and sprayed with aqueous test solutions prepared from 10′000 ppm DMSO stock solutions. After drying the leaf discs were infested with five L1 larvae. The samples were assessed for mortality, anti-feeding effect, and growth inhibition in comparison to untreated samples 3 days after infestation. Control of Spodoptera littoralis by a test sample is given when at least one of the categories mortality, anti-feedant effect, and growth inhibition is higher than the untreated sample.

[5] = system: Plutella xylostella (Diamond back moth); experiment: Example B5: Plutella xylostella (Diamond back moth), artificial diet, 24-well; conditions: 192 h, application rate 200 ppm, eggs, 8 days after infestation, read-out: control in at least one of the two categories (mortality or growth inhibition)
Method: Example B5: Plutella xylostella (Diamond back moth)
24-well microtiter plates with artificial diet were treated with aqueous test solutions prepared from 10′000 ppm DMSO stock solutions by pipetting. After drying, Plutella eggs were pipetted through a plastic stencil onto a gel blotting paper and the plate was closed with it. The samples were assessed for mortality and growth inhibition in comparison to untreated samples 8 days after infestation.
(§1) The following compounds gave an effect of at least 80% control in at least one of the two categories (mortality or growth inhibition) at an application rate of 200 ppm: […]

[6] = system: Diabrotica balteata (Corn root worm); experiment: Example B1: Diabrotica balteata (Corn root worm), sprayed maize sprouts; conditions: 96 h, application rate 200 ppm, L2 larvae, 4 days after infestation, read-out: control in at least one of the two categories (mortality or growth inhibition)
Method: Example B1: Diabrotica balteata (Corn root worm)
Maize sprouts placed onto an agar layer in 24-well microtiter plates were treated with aqueous test solutions prepared from 10′000 ppm DMSO stock solutions by spraying. After drying, the plates were infested with L2 larvae (6 to 10 per well). The samples were assessed for mortality and growth inhibition in comparison to untreated samples 4 days after infestation.
as §1

[7] = system: Spodoptera littoralis (Egyptian cotton leaf worm); experiment: Example B10: Spodoptera littoralis (Egyptian cotton leaf worm), uptake by lettuce roots from agar; conditions: 144 h, test rate 12.5 ppm, eggs, 6 days after infestation, read-out: control in at least one of the three categories (mortality, anti-feeding, or growth inhibition)
Description: Example B10: Spodoptera littoralis (Egyptian cotton leaf worm)
Test compounds were applied by pipette from 10′000 ppm DMSO stock solutions into 24-well plates and mixed with agar. Lettuce seeds were placed onto the agar and the multi well plate was closed by another plate which contained also agar. After 7 days the compound was absorbed by the roots and the lettuce grew into the lid plate. The lettuce leaves were then cut off into the lid plate. Spodoptera eggs were pipetted through a plastic stencil onto a humid gel blotting paper and the lid plate was closed with it. The samples were assessed for mortality, anti-feedant effect and growth inhibition in comparison to untreated samples 6 days after infestation.
The following compounds gave an effect of at least 80% control in at least one of the three categories (mortality, anti-feeding, or growth inhibition) at a test rate of 12.5 ppm: […]

[8] = system: Frankliniella occidentalis (Western flower thrips); experiment: Example B3: Frankliniella occidentalis (Western flower thrips): Feeding/contact activity; conditions: 168 h, application rate 200 ppm, population of mixed ages, 7 days after infestation
Method: Example B3: Frankliniella occidentalis (Western flower thrips):Feeding/contact activity
Sunflower leaf discs were placed on agar in 24-well microtiter plates and sprayed with aqueous test solutions prepared from […] stock solutions. After drying the leaf discs were infested with a Frankliniella population of mixed ages. The samples were assessed for mortality 7 days after infestation.

[9] = system: Myzus persicae (Green peach aphid); experiment: Example B8: Myzus persicae (Green peach aphid): Intrinsic activity; conditions: 120 h, test rate 12 ppm, 5 days after infestation
Description: Example B8: Myzus persicae (Green peach aphid): Intrinsic activity
Test compounds prepared from 10′000 ppm DMSO stock solutions were applied by pipette into 24-well microtiter plates and mixed with sucrose solution. The plates were closed with a stretched Parafilm. A plastic stencil with 24 holes was placed onto the plate and infested pea seedlings were placed directly on the Parafilm. The infested plate was closed with a gel blotting paper and another plastic stencil and then turned upside down. The samples were assessed for mortality 5 days after infestation.

C[C@H](NC(=O)c1cc(C(F)(F)F)cc(C(F)(F)C2CC2)c1)c1ncnn1-c1ncc(OCC(F)F)cn1 [P7, 3-[cyclopropyl(difluoro)methyl]-N-[(1S)-1-[2-[5-(2,2-difluoroethoxy)pyrimidin-2-yl]-1,2,4-triazol-3-yl]ethyl]-5-(trifluoromethyl) benzamide]
≥ 80%: mortality at 50 ppm [1] | percent control (mortality, anti-feedant effect or growth inhibition) at 200 ppm [2] | mortality at 500 ppm [3] | percent control (mortality, anti-feedant effect or growth inhibition) at 200 ppm [4] | percent control (mortality or growth inhibition) at 200 ppm [5]

C[C@H](NC(=O)c1cc(C(F)(F)F)nc(C2(C#N)CC2)c1)c1ncnn1-c1ccc(C#N)cn1 [P1, 2-(1-cyanocyclopropyl)-N-[(1S)-1-[2-(5-cyano-2-pyridyl)-1,2,4-triazol-3-yl]ethyl]-6-(trifluoromethyl)pyridine-4-carboxamide]
≥ 80%: percent control (mortality, anti-feedant effect or growth inhibition) at 200 ppm [2] | mortality at 500 ppm [3] | percent control (mortality or growth inhibition) at 200 ppm [6] | percent control (mortality, anti-feedant effect or growth inhibition) at 200 ppm [4] | percent control (mortality, anti-feeding or growth inhibition) at 12.5 ppm [7] | percent control (mortality or growth inhibition) at 200 ppm [5]

CC(NC(=O)c1cc(C(F)(F)F)cc(S(=O)(=O)C(F)(F)F)c1)c1ncnn1-c1ccc(C#N)cn1 (centres unmarked) [P5, N-[1-[2-(5-cyano-2-pyridyl)-1,2,4-triazol-3-yl]ethyl]-3-(trifluoromethyl)-5-(trifluoromethylsulfonyl)benzamide]
≥ 80%: percent control (mortality, anti-feedant effect or growth inhibition) at 200 ppm [2] | mortality at 500 ppm [3] | percent control (mortality or growth inhibition) at 200 ppm [6] | percent control (mortality, anti-feedant effect or growth inhibition) at 200 ppm [4] | mortality at 200 ppm [8] | percent control (mortality, anti-feeding or growth inhibition) at 12.5 ppm [7] | percent control (mortality or growth inhibition) at 200 ppm [5]

CC(NC(=O)c1cc(C2CC2)nc(C(F)(F)F)c1)c1ncnn1-c1ncc(OCC(F)F)cn1 (centres unmarked) [P22, 2-cyclopropyl-N-[1-[2-[5-(2,2-difluoroethoxy)pyrimidin-2-yl]-1,2,4-triazol-3-yl]ethyl]-6-(trifluoromethyl)pyridine-4-carboxamide]
≥ 80%: percent control (mortality, anti-feedant effect or growth inhibition) at 200 ppm [2] | percent control (mortality or growth inhibition) at 200 ppm [6] | mortality at 12 ppm [9] | percent control (mortality, anti-feedant effect or growth inhibition) at 200 ppm [4] | percent control (mortality or growth inhibition) at 200 ppm [5]

C[C@H](NC(=O)c1cc(C(F)(F)F)cc(S(=O)(=O)C(F)(F)F)c1)c1ncnn1-c1ccc(C#N)cn1 [P2, N-[(1S)-1-[2-(5-cyano-2-pyridyl)-1,2,4-triazol-3-yl]ethyl]-3-(trifluoromethyl)-5-(trifluoromethylsulfonyl) benzamide]
≥ 80%: percent control (mortality, anti-feedant effect or growth inhibition) at 200 ppm [2] | mortality at 500 ppm [3] | percent control (mortality or growth inhibition) at 200 ppm [6] | percent control (mortality, anti-feedant effect or growth inhibition) at 200 ppm [4] | percent control (mortality, anti-feeding or growth inhibition) at 12.5 ppm [7] | percent control (mortality or growth inhibition) at 200 ppm [5]
